Measured values taken from PubChem BioAssay AID1963852 (Molecular Pharmacology Branch, DTP, NCI, 2024).

System: 282377-053-R-J1-PDC complex spheroid viability
Experiment: Anticancer human tumor 282377-053-R-J1-PDC patient-derived colon adenocarcinoma cell line growth inhibition [POLQ]
Conditions: for IC50: curve of first compound; for viability, T/C: stronger effect = lower value; active means viability on the fitted dose curve at most 10% of control; inactive means the rest
Method: Multicellular complex tumor spheroid response to Polymerase (POL) inhibitors (novobiocin, ART-558, RP6685) in combination with a variety of drugs and investigational agents in selected tumor cell lines
The POL inhibitors (novobiocin, ART-558, and RP6685) were evaluated both individually and in combination with standard of care and investigational anticancer small molecules within a complex spheroid model of solid tumors. . Complex spheroids include a stromal component modeled by human endothelial cells (HUVEC) and fibroblasts modeled by human mesenchymal stem cells (MSCs). The concentration ranges selected for each drug and investigational agent were based upon clinically achievable concentrations if the clinical Cmax of the agent was known.
Compounds. The drugs and investigational agents: novobiocin (NSC847541), ART-558 (NSC835418), RP-6685 (NSC848927), peposertib (NSC802822), ceralasertib (NSC780249), elimusertib (NSC800525), camonsertib (NSC841442), AZD-1390 (NSC803789), olaparib (NSC753686), talazoparib (NSC767125), rucaparib (NSC756644), sotorasib (NSC818433), MRTX-1133 (NSC836407), SN-38 (NSC673596), topotecan (NSC609699), epotoside (NSC141540), doxorubicin (NSC123127), gemcitabine (NSC613327), 5-fluorouracil (NSC19893), paclitaxel (NSC125973), vemurafenib (NSC761431), MSA-2 (NSC828583), SN-011 (NSC837082), adavosertib (NSC754352), prexasertib (NSC758257), carboplatin (NSC241240) and oxaliplatin (NSC266046), were obtained from the National Cancer Institute (NCI) Developmental Therapeutics Program Chemical Repository (21). The FDA-approved anticancer drug set is available from the Developmental Therapeutics Program at https://dtp.cancer.gov/organization/dscb/obtaining/. […] The stock solutions were prepared in dimethyl sulfoxide (DMSO, Sigma-Aldrich, St. Louis, MO, cat. D2650), except for the platinum compounds which were prepared in saline (Quality Biological, Gaithersburg, MD, cat. 114-055-101), at 800-fold the tested concentration and stored at -70 degrees C prior to their use. All drugs and investigational agents were tested over a range starting from a high concentration at or near the clinical Cmax and decreasing in half-log increments. If the clinical Cmax for an agent had not been determined, the highest concentration tested was 10 microM, except for SN-38, which was tested at a high concentration of 1 microM.
Cell Culture. All cells were maintained in an incubator at 37 degrees C and 5% CO2 with 95% humidity. The PDC lines were cultured according to standard operating procedures established by the NCI PDMR (https://pdmr.cancer.gov). Table 3 of the manuscript, lists the cell lines along with the number of the three cell types plated to form the mct-spheroids and media for tumor cell growth. After thawing, all PDC lines, except 997537-175-T-J1-PDC and 415267-285-R-J2-PDC, were cultured in Matrigel-coated flasks prepared with a working solution of 1X Ham's F-12 nutrient mix, without supplementation (Thermo Fisher Scientific, cat. 11765054), 100 U/mL penicillin-streptomycin (Thermo Fisher Scientific, cat. 15140122), and 2.5% Matrigel (Corning Inc., Corning, NY, cat. 354248) for the first three passages. The two PDC lines 997537-175-T-J1-PDC and 415267-285-R-J2-PDC were cultured on uncoated flasks. The 857933-349-R-J2-PDC line was cultured in 6C/Colon 1B media containing advanced DMEM/F-12 (Thermo Fisher Scientific, cat. 12634028), 10 mM HEPES (Thermo Fisher Scientific, cat. 15630080), 1X GlutaMAX supplement (Thermo Fisher Scientific, cat. 35050061), 0.1 mg/mL primocin (InvivoGen, San Diego, CA, cat. ant-pm-2), 10% defined fetal bovine serum, heat inactivated (HyClone Laboratories Inc., Logan, UT, cat. SH30070.03HI), 50% L-WRN conditioned media (ATCC, cat. CRL-3276), 1.25 mM N-Acetyl-L-cysteine (Sigma-Aldrich, cat. A9165), 10 mM nicotinamide (Sigma-Aldrich, cat. N0636), 1X B-27 supplement (Thermo Fisher Scientific, cat. 17504044), 1X N-2 supplement (Thermo Fisher Scientific, cat. […]
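Further: spheroids exposed to compounds for seven days.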

CC(=O)O[C@H]1C(=O)[C@@]2(C)[C@H]([C@H](OC(=O)c3ccccc3)[C@]3(O)C[C@H](OC(=O)[C@H](O)[C@@H](NC(=O)c4ccccc4)c4ccccc4)C(C)=C1C3(C)C)[C@]1(OC(C)=O)CO[C@@H]1C[C@@H]2O + COC1C(OC(N)=O)C(O)C(Oc2ccc3c(O)c(NC(=O)c4ccc(O)c(CC=C(C)C)c4)c(=O)oc3c2C)OC1(C)C
13.1 nM: IC50 (second compound 10 µM)
inactive: viability, T/C (second compound 0.0316 µM, first compound 0.00949 µM) 39.3% | viability, T/C (second compound 0.0316 µM, first compound 0.03 µM) 18.9% | viability, T/C (second compound 0.0316 µM, first compound 0.0949 µM) 19.9% | viability, T/C (second compound 0.0316 µM, first compound 0.3 µM) 20.6% | viability, T/C (second compound 0.0316 µM, first compound 0.949 µM) 19.5% | viability, T/C (second compound 0.0316 µM, first compound 3 µM) 24.1% | viability, T/C (second compound 0.1 µM, first compound 0.00949 µM) 52.5% | viability, T/C (second compound 0.1 µM, first compound 0.03 µM) 21.9% | viability, T/C (second compound 0.1 µM, first compound 0.0949 µM) 20.9% | viability, T/C (second compound 0.1 µM, first compound 0.3 µM) 18.1% | viability, T/C (second compound 0.1 µM, first compound 0.949 µM) 22.1% | viability, T/C (second compound 0.1 µM, first compound 3 µM) 25.3% | viability, T/C (second compound 0.316 µM, first compound 0.00949 µM) 55.7% | viability, T/C (second compound 0.316 µM, first compound 0.03 µM) 20.8% | viability, T/C (second compound 0.316 µM, first compound 0.0949 µM) 19.9% | viability, T/C (second compound 0.316 µM, first compound 0.3 µM) 20.7% | viability, T/C (second compound 0.316 µM, first compound 0.949 µM) 22.9% | viability, T/C (second compound 0.316 µM, first compound 3 µM) 20.6% | viability, T/C (second compound 1 µM, first compound 0.00949 µM) 55.6% | viability, T/C (second compound 1 µM, first compound 0.03 µM) 20.8% | viability, T/C (second compound 1 µM, first compound 0.0949 µM) 16.8% | viability, T/C (second compound 1 µM, first compound 0.3 µM) 17.1% | viability, T/C (second compound 1 µM, first compound 0.949 µM) 22.2% | viability, T/C (second compound 1 µM, first compound 3 µM) 27.9% | viability, T/C (second compound 3.16 µM, first compound 0.00949 µM) 58.5% | viability, T/C (second compound 3.16 µM, first compound 0.03 µM) 23.8% | viability, T/C (second compound 3.16 µM, first compound 0.0949 µM) 15.8% | viability, T/C (second compound 3.16 µM, first compound 0.3 µM) 18.2% | viability, T/C (second compound 3.16 µM, first compound 0.949 µM) 23.1% | viability, T/C (second compound 3.16 µM, first compound 3 µM) 29.4% | viability, T/C (second compound 10 µM, first compound 0.00949 µM) 61.4% | viability, T/C (second compound 10 µM, first compound 0.03 µM) 20.9% | viability, T/C (second compound 10 µM, first compound 0.0949 µM) 16.9% | viability, T/C (second compound 10 µM, first compound 0.3 µM) 20.7% | viability, T/C (second compound 10 µM, first compound 0.949 µM) 24.5% | viability, T/C (second compound 10 µM, first compound 3 µM) 20.2%
12.6 nM: IC50 (second compound 3.16 µM)
11.5 nM: IC50 (second compound 0.316 µM)
< 9.49 nM: IC50 (second compound 0.0316 µM)
11.4 nM: IC50 (second compound 1 µM)
10.4 nM: IC50 (second compound 0.1 µM)
